Assay results taken from patent US8415272B2, “Quinoline derivatives and their use as fungicides” (Syngenta Crop Protection LLC, priority 2008, dated 2013).

Assays:
[1] = test system: Pyrenophora teres; experiment: Leaf disk assay, Pyrenophora teres (barley net blotch), preventive; type: in vivo; conditions: foliar, 96 h, barley leaf segments, assessed four days after inoculation, read-out: control of fungal infection, Pyrenophora teres
Experimental: The compounds were tested in a leaf disk assay, with methods described below. The test compounds were dissolved in DMSO and diluted into water to 200 ppm. In the case of the test on Pythium ultimum, they were dissolved in DMSO and diluted into water to 20 ppm. Pyrenophora teres (barley net blotch): Barley leaf segments were placed on agar in a 24-well plate and sprayed with a solution of the test compound. After allowing to dry completely, for between 12 and 24 hours, the leaf disks were inoculated with a spore suspension of the fungus. After appropriate incubation the activity of a compound was assessed four days after inoculation as preventive fungicidal activity.

[2] = test system: Pythium ultimum; experiment: Growth inhibition in potato dextrose broth, Pythium ultimum (damping off), photometric; type: cell-based; conditions: Globisporangium ultimum, 24° C., 48 hours, read-out: control of fungal infection, Pythium ultimum
Outline: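 Growth inhibition was read photometrically at 48 hours after incubation at 24° C. Test compound was diluted from DMSO to 20 ppm in water and combined with potato dextrose broth seeded with Pythium ultimum mycelial fragments.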

[3] = test system: Phytophthora infestans; experiment: whole plant or invertebrate; type: in vivo; conditions: in Solanum lycopersicum, foliar, 96 h, read-out: control of fungal infection, Phytophthora infestans
[4] = test system: Plasmopara viticola; experiment: Leaf disk assay, Plasmopara viticola (downy mildew of grapevine), preventive; type: in vivo; conditions: foliar, 168 h, grapevine leaf disks, assessed seven days after inoculation, read-out: control of fungal infection, Plasmopara viticola
[5] = test system: Septoria nodorum; experiment: Leaf disk assay, Septoria nodorum (wheat glume blotch), preventive; type: in vivo; conditions: Parastagonospora nodorum, foliar, 96 h, wheat leaf segments, assessed four days after inoculation, read-out: control of fungal infection, Septoria nodorum
[6] = test system: Puccinia recondita f.sp. tritici; experiment: Leaf disk assay, Puccinia recondita f.sp. tritici (wheat brown rust), preventive; type: in vivo; conditions: foliar, 216 h, wheat leaf segments, assessed nine days after inoculation, read-out: control of fungal infection, Puccinia recondita f.sp. tritici
[7] = test system: Erysiphe graminis f.sp. tritici; experiment: Leaf disk assay, Erysiphe graminis f.sp. tritici (wheat powdery mildew), preventive; type: in vivo; conditions: Blumeria graminis, foliar, 96 h, wheat leaf segments, assessed four days after inoculation, read-out: control of fungal infection, Erysiphe graminis f.sp. tritici
Outline: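 Wheat leaf segments on agar were sprayed with compound at 200 ppm (DMSO stock diluted in water). After 12–24 h drying they were inoculated with powdery mildew spores. Preventive activity was scored 4 days after inoculation.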

[8] = test system: Fusarium culmorum; experiment: Growth inhibition in nutrient broth, Fusarium culmorum (root rot), photometric; type: cell-based; conditions: 48 h, read-out: control of fungal infection, Fusarium culmorum
Outline: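 Fusarium culmorum conidia in potato dextrose broth were added to compounds in DMSO. Plates were incubated at 24 C for 48 hrs, with growth inhibition read photometrically. […]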

[9] = test system: Septoria tritici; experiment: Growth inhibition in nutrient broth, Septoria tritici (leaf blotch), photometric; type: cell-based; conditions: Zymoseptoria tritici, PDB broth, 24 C, 72 hrs, read-out: control of fungal infection, Septoria tritici

C#Cc1cnc2c(Br)cc(OC(SC)C(=O)NC(C)(C)C#CC)cc2c1 (stereo not shown) [Example 131]
≥ 60%: pest or weed control at 200 ppm [1] | inhibition of growth at 20 ppm [2] | pest or weed control at 200 ppm [3] | pest or weed control at 200 ppm [4] | pest or weed control at 200 ppm [5] | pest or weed control at 200 ppm [6] | pest or weed control at 200 ppm [7] | inhibition of growth at 60 ppm [8] | inhibition of growth at 60 ppm [9]

C#Cc1cnc2ccc(OC(SC)C(=O)NC(C)(C)CF)cc2c1 (stereo not shown) [Example 99]
≥ 60%: pest or weed control at 200 ppm [1] | pest or weed control at 200 ppm [3] | pest or weed control at 200 ppm [4] | pest or weed control at 200 ppm [5] | pest or weed control at 200 ppm [6] | pest or weed control at 200 ppm [7] | inhibition of growth at 60 ppm [8] | inhibition of growth at 60 ppm [9]

C#Cc1cnc2c(C)cc(OC(SC)C(=O)NC(C)(C)CF)cc2c1 (stereo not shown) [Example 93]
≥ 60%: pest or weed control at 200 ppm [1] | inhibition of growth at 20 ppm [2] | pest or weed control at 200 ppm [3] | pest or weed control at 200 ppm [4] | pest or weed control at 200 ppm [5] | pest or weed control at 200 ppm [6] | pest or weed control at 200 ppm [7] | inhibition of growth at 60 ppm [8] | inhibition of growth at 60 ppm [9]

C#Cc1cnc2c(Cl)cc(OC(SC)C(=O)NC(C)(C)C)cc2c1 (stereo not shown) [Example 18]
≥ 60%: pest or weed control at 200 ppm [1] | inhibition of growth at 20 ppm [2] | pest or weed control at 200 ppm [3] | pest or weed control at 200 ppm [4] | pest or weed control at 200 ppm [5] | pest or weed control at 200 ppm [6] | pest or weed control at 200 ppm [7] | inhibition of growth at 60 ppm [8] | inhibition of growth at 60 ppm [9]

C#Cc1cnc2c(C)cc(OC(CC)C(=O)NC(C)(C)C)cc2c1 (stereo not shown) [Example 115]
≥ 60%: pest or weed control at 200 ppm [1] | pest or weed control at 200 ppm [3] | pest or weed control at 200 ppm [4] | pest or weed control at 200 ppm [5] | pest or weed control at 200 ppm [6] | pest or weed control at 200 ppm [7] | inhibition of growth at 60 ppm [8] | inhibition of growth at 60 ppm [9]

C#Cc1cnc2ccc(OC(SC)C(=O)NC(C)(C)C#CC)cc2c1 (stereo not shown) [Example 22]
≥ 60%: pest or weed control at 200 ppm [1] | inhibition of growth at 20 ppm [2] | pest or weed control at 200 ppm [3] | pest or weed control at 200 ppm [4] | pest or weed control at 200 ppm [5] | pest or weed control at 200 ppm [6] | pest or weed control at 200 ppm [7] | inhibition of growth at 60 ppm [8] | inhibition of growth at 60 ppm [9]

C#Cc1cnc2cc(F)c(OC(SC)C(=O)NC(C)(C)COC)cc2c1 (stereo not shown) [Example 108]
≥ 60%: pest or weed control at 200 ppm [1] | pest or weed control at 200 ppm [3] | pest or weed control at 200 ppm [4] | pest or weed control at 200 ppm [5] | pest or weed control at 200 ppm [6] | pest or weed control at 200 ppm [7] | inhibition of growth at 60 ppm [8] | inhibition of growth at 60 ppm [9]

C#Cc1cnc2c(F)c(F)c(OC(SC)C(=O)NC(C)(C)C)cc2c1 (stereo not shown) [Example 219]
≥ 60%: pest or weed control at 200 ppm [1] | inhibition of growth at 20 ppm [2] | pest or weed control at 200 ppm [3] | pest or weed control at 200 ppm [4] | pest or weed control at 200 ppm [5] | pest or weed control at 200 ppm [6] | pest or weed control at 200 ppm [7] | inhibition of growth at 60 ppm [8] | inhibition of growth at 60 ppm [9]

C#Cc1cnc2ccc(OC(SC)C(=O)NC(C)(C)C#CCC)cc2c1 (stereo not shown) [Example 117]
≥ 60%: pest or weed control at 200 ppm [1] | inhibition of growth at 20 ppm [2] | pest or weed control at 200 ppm [3] | pest or weed control at 200 ppm [4] | pest or weed control at 200 ppm [5] | pest or weed control at 200 ppm [6] | pest or weed control at 200 ppm [7] | inhibition of growth at 60 ppm [8] | inhibition of growth at 60 ppm [9]

C#Cc1cnc2c(Br)cc(OC(SC)C(=O)NC(C)(C)C)cc2c1 (stereo not shown) [Example 132]
≥ 60%: pest or weed control at 200 ppm [1] | inhibition of growth at 20 ppm [2] | pest or weed control at 200 ppm [3] | pest or weed control at 200 ppm [4] | pest or weed control at 200 ppm [5] | pest or weed control at 200 ppm [6] | pest or weed control at 200 ppm [7] | inhibition of growth at 60 ppm [8] | inhibition of growth at 60 ppm [9]

C#CCOCC#CC(C)(C)NC(=O)C(Oc1ccc2ncc(C#C)cc2c1)SC (stereo not shown) [Example 24]
≥ 60%: pest or weed control at 200 ppm [1] | inhibition of growth at 20 ppm [2] | pest or weed control at 200 ppm [3] | pest or weed control at 200 ppm [4] | pest or weed control at 200 ppm [5] | pest or weed control at 200 ppm [6] | pest or weed control at 200 ppm [7] | inhibition of growth at 60 ppm [8] | inhibition of growth at 60 ppm [9]

C#CCOCC(C)(C)NC(=O)C(Oc1cc2cc(C#C)cnc2cc1F)SC (stereo not shown) [Example 109]
≥ 60%: pest or weed control at 200 ppm [1] | pest or weed control at 200 ppm [3] | pest or weed control at 200 ppm [4] | pest or weed control at 200 ppm [5] | pest or weed control at 200 ppm [6] | pest or weed control at 200 ppm [7] | inhibition of growth at 60 ppm [8] | inhibition of growth at 60 ppm [9]

C#Cc1cnc2ccc(OC(SC)C(=O)NC3(C)CCC3)cc2c1 (stereo not shown) [Example 202]
≥ 60%: pest or weed control at 200 ppm [1] | inhibition of growth at 20 ppm [2] | pest or weed control at 200 ppm [3] | pest or weed control at 200 ppm [4] | pest or weed control at 200 ppm [5] | pest or weed control at 200 ppm [6] | pest or weed control at 200 ppm [7] | inhibition of growth at 60 ppm [9]

CSC(Oc1ccc2ncc(C#CCF)cc2c1)C(=O)NC(C)(C)C (stereo not shown) [Example 144]
≥ 60%: pest or weed control at 200 ppm [1] | inhibition of growth at 20 ppm [2] | pest or weed control at 200 ppm [3] | pest or weed control at 200 ppm [4] | pest or weed control at 200 ppm [5] | pest or weed control at 200 ppm [7] | inhibition of growth at 60 ppm [8] | inhibition of growth at 60 ppm [9]

C#Cc1cnc2ccc(OC(SC)C(=O)NC(C)(C#C)COC)cc2c1 (stereo not shown) [Example 129]
≥ 60%: pest or weed control at 200 ppm [1] | inhibition of growth at 20 ppm [2] | pest or weed control at 200 ppm [3] | pest or weed control at 200 ppm [4] | pest or weed control at 200 ppm [5] | pest or weed control at 200 ppm [6] | pest or weed control at 200 ppm [7] | inhibition of growth at 60 ppm [9]

C#Cc1cnc2c(C)cc(OC(CC)C(=O)NC(C)(C)C#C)cc2c1 (stereo not shown) [Example 114]
≥ 60%: pest or weed control at 200 ppm [1] | pest or weed control at 200 ppm [3] | pest or weed control at 200 ppm [4] | pest or weed control at 200 ppm [5] | pest or weed control at 200 ppm [6] | pest or weed control at 200 ppm [7] | inhibition of growth at 60 ppm [8] | inhibition of growth at 60 ppm [9]
